In publication PMC5402281, “Functional, thermodynamics, structural and biological studies of in silico-identified inhibitors of Mycobacterium tuberculosis enoyl-ACP(CoA) reductase enzyme” (Scientific Reports, 2017):
≈ marks a conversion by molar mass, not a printed value.

Tested on: M. tuberculosis PE-003 multidrug-resistant clinical isolate
Assay: microbe, parasite or virus in culture
Format: cell-based
Settings: Mycobacterium tuberculosis, read-out: MIC PE-003 in μM

| SMILES | MIC |
| --- | --- |
| CCOC(=O)c1ccc2nc(C)cc(Nc3ccc(N4CCCCC4)cc3)c2c1 [Labio_17] | 2.5 µM (≈ 0.974 µg/mL) |
| Cc1ccccc1OCc1nc(-c2ccc(NC(=O)c3cccs3)cc2)no1 [Labio_16] | 1.5 µM (≈ 0.587 µg/mL) |
